Several values for one entry are separate records, joined by “and”; a condition that tells them apart may be missing. Equal values may be shown once. After the bases stand the sugars from the 5' end (letter, count) and the backbone: PS all phosphorothioate, else s phosphorothioate and o phosphodiester by linkage. Methylation of C is not given here. e = 2'-O-(2-methoxyethyl) (MOE); k = constrained ethyl (cEt); d = 2'-deoxy (DNA)
Target: SOD1
Settings: ASO

Sequence	target mRNA inhibition (HepG2, 3 µM) [%]	target mRNA inhibition (HepG2, 5 µM)	other results
TACAGTGTTTAATGTTTA (sugars e5 d8 e5, linkages s1 o3 s9 o2 s2)	–	–	target mRNA inhibition (A431, 0.12 µM): 3%; target mRNA inhibition (A431, 0.6 µM): 0%; target mRNA inhibition (A431, 3 µM): 1%; target mRNA inhibition (A431, 15 µM): 20%; target mRNA inhibition (HepG2, 0.222 µM): 13%; target mRNA inhibition (HepG2, 0.667 µM): 46%; target mRNA inhibition (HepG2, 2 µM): 70%; target mRNA inhibition (HepG2, 6 µM): 57%
TACATTTCTACAGCTA (sugars ekddddddddekekee, linkages s1 o1 s8 o3 s2)	–	–	target mRNA inhibition (A431, 0.12 µM): 37%; target mRNA inhibition (A431, 0.6 µM): 0%; target mRNA inhibition (A431, 3 µM): 22%; target mRNA inhibition (A431, 15 µM): 12%; target mRNA inhibition (HepG2, 0.222 µM): 36%; target mRNA inhibition (HepG2, 0.667 µM): 69%; target mRNA inhibition (HepG2, 2 µM): 83%; target mRNA inhibition (HepG2, 6 µM): 95%
TACTTTCTTCATTTCCA (sugars e3 k2 d7 k2 e3, PS)	18	–	–
TATACAAATCTTCCAAG (sugars e3 k2 d7 k2 e3, PS)	11	–	–
TATAGGCCAGACCTCCGCGC (sugars e5 d10 e5, PS)	–	–	target mRNA inhibition (HepG2, 4 µM): 40%
TATCAGGATACATTTCTACA (sugars e5 d10 e5, PS)	48	58%	target mRNA inhibition (HepG2, 0.1875 µM): 13%; target mRNA inhibition (HepG2, 0.75 µM): 16%; target mRNA inhibition (HepG2, 12 µM): 81%
TCACACAATTACACTTT (sugars e2 k2 d9 k2 e2, PS)	–	39%	–
TCAGCAGTCACATTGCCCAA (sugars e5 d10 e5, PS)	–	52% and 42%	–
TCAGTTTCTCACTACAG (sugars e2 k2 d9 k2 e2, PS)	–	43%	–
TCATAAATCAGTTTCTCACT (sugars e5 d10 e5, PS)	–	21%	–
TCATCCTTTGGCCCACC (sugars e3 k2 d7 k2 e3, PS)	27	–	–
TCATTTCCACCTTTGCC (sugars e3 k2 d7 k2 e3, PS)	57	–	–
TCCAACATGCCTCTCTT (sugars e3 k2 d7 k2 e3, PS)	0	–	–
TCCATGCAGGCCTTCAG (sugars e3 k2 d7 k2 e3, PS)	18	–	–
TCCATTACTTTCCTTCT (sugars e3 k2 d7 k2 e3, PS)	18	–	–
TCCTTCTGCTCGAAATT (sugars e3 k2 d7 k2 e3, PS)	14	–	–
TCCTTTGGCCCACCGTGTTT (sugars e5 d10 e5, PS)	–	30% and 23%	–
TCTACAGCTAGCAGGAT (sugars e2 k2 d8 k2 e3, PS)	74	–	target mRNA inhibition (HepG2, 0.1875 µM): 23%; target mRNA inhibition (HepG2, 0.75 µM): 51%; target mRNA inhibition (HepG2, 4 µM): 75%; target mRNA inhibition (HepG2, 12 µM): 91%
TCTACAGCTAGCAGGAT (sugars e3 k2 d7 k2 e3, PS)	51	–	–
TCTGACAAGTTTAATAC (sugars e2 k2 d9 k2 e2, PS)	–	20%	–
TCTGCTCGAAATTGATG (sugars e3 k2 d7 k2 e3, PS)	34	–	–
TCTGCTTTTTCATGGAC (sugars e3 k2 d7 k2 e3, PS)	55	–	–
TCTGTGATTTAAGTCTG (sugars e2 k2 d9 k2 e2, PS)	–	49%	–
TCTGTGATTTAAGTCTGGCA (sugars e5 d10 e5, PS)	–	44%	–

Sequence	target mRNA inhibition (HepG2, 3 µM) [%]	target mRNA inhibition (HepG2, 5 µM)	other results
TCTTCCAAGTGATCATA (sugars e2 k2 d8 k2 e3, PS)	–	33%	–
TCTTCCAAGTGATCATA (sugars e2 k2 d9 k2 e2, PS)	–	43%	–
TCTTTGTCAGCAGTCACATT (sugars e5 d10 e5, PS)	–	20% and 11%	–
TCTTTTAATAGCCTCAT (sugars e2 k2 d8 k2 e3, PS)	–	52%	–
TCTTTTAATAGCCTCAT (sugars e2 k2 d9 k2 e2, PS)	–	56%	–
TGAACATGGAATCCATG (sugars e3 k2 d7 k2 e3, PS)	2	–	–
TGACAAGTTTAATACCC (sugars e2 k2 d9 k2 e2, PS)	–	52%	–
TGACAAGTTTAATACCC (sugars e3 k2 d7 k2 e3, PS)	27	–	–
TGATCATAAATCAGTTT (sugars e2 k2 d8 k2 e3, PS)	–	49%	–
TGCAACGGAAACCCCAGACG (sugars e5 d10 e5, PS)	–	–	target mRNA inhibition (HepG2, 4 µM): 21%
TGCCATACAGGGTTTTT (sugars e2 k2 d8 k2 e3, PS)	–	21%	–
TGCCTCTCTTCATCCTT (sugars e3 k2 d7 k2 e3, PS)	6	–	–
TGCTTTTTCATGGACCA (sugars e3 k2 d7 k2 e3, PS)	51	–	–
TGGATTCTTTTAATAGCCTC (sugars e5 d10 e5, PS)	–	13%	–
TGGCAAAATACAGGTCA (sugars e2 k2 d9 k2 e2, PS)	–	43%	–
TGGGCGATCCCAATTAC (sugars e2 k2 d8 k2 e3, PS)	–	–	target mRNA inhibition (HepG2, 4 µM): 19%
TGGTCTCCTGAGAGTGAGAT (sugars e5 d10 e5, PS)	–	24%	–
TGTGATTTAAGTCTGGC (sugars e2 k2 d8 k2 e3, PS)	–	45%	–
TGTGATTTAAGTCTGGCAAA (sugars e5 d10 e5, PS)	–	34%	–
TGTTTATTGGGCGATCC (sugars e3 k2 d7 k2 e3, PS)	21	–	–
TTAAGTCTGGCAAAATA (sugars e2 k2 d8 k2 e3, PS)	–	27%	–
TTAATGTTTATCAGGAT (sugars e2 k2 d8 k2 e3, PS)	90	–	target mRNA inhibition (HepG2, 0.1875 µM): 50%; target mRNA inhibition (HepG2, 0.75 µM): 86%; target mRNA inhibition (HepG2, 4 µM): 90%; target mRNA inhibition (HepG2, 12 µM): 97%
TTAATGTTTATCAGGAT (sugars e2 k2 d9 k2 e2, linkages s1 o3 s9 o1 s2)	–	–	target mRNA inhibition (A431, 0.12 µM): 12%; target mRNA inhibition (A431, 0.6 µM): 48%; target mRNA inhibition (A431, 3 µM): 54%; target mRNA inhibition (A431, 15 µM): 72%
